Here are results for 23 compounds from ChEMBL document CHEMBL3593232, “Ring-substituted 8-hydroxyquinoline-2-carboxanilides as potential antimycobacterial agents” (Bioorg Med Chem, 2015).

≈ marks a conversion by molar mass, not a printed value.

For series [1], the system named is Mycobacterium avium complex sp. It is filed as functional. The settings on record: isolate CIT19/06, 120 h.
Series [2] has as its system Mycobacterium avium subsp. paratuberculosis. It is filed as functional. The settings on record: isolate CIT03, 264 h.
The test system of the next series is THP-1. Put plainly: Cytotoxicity against human THP1 cells assessed as reduction in cell viability incubated for 24 hrs by WST1 dye based assay. The following applies: THP-1, 24 h. Background: Tetrazolium assays rely on reduction of a dye to a coloured formazan, in cell work by metabolically active cells.
Series [3] relates to Mycobacterium tuberculosis. Put plainly: microbe, parasite or virus in culture. The following applies: H37Ra ATCC 25177, 168 h.
Description: Antimycobacterial activity against Mycobacterium tuberculosis H37Ra ATCC 25177 assessed as reduction in bacterial growth incubated at 37 degC for 7 days by alamar blue dye based assay
Series [4] in a line: Lipophilicity assessed as capacity factor logK of the compound by HPLC method. Format: physicochemical.
The test system of series [5] is Mycobacterium tuberculosis. Format: functional, H37Ra ATCC 25177.

Broadly, the IC50 is the point on the concentration scale where inhibition reaches its midpoint. With `O=C(Nc1ccccc1)c1ccc2cccc(O)c2n1`, the MIC90 in series [1], in series [2] and in series [3] was 30 µM (≈ 7.93 µg/mL) each time. The concentration for half-maximal inhibition (IC50) in the series on THP-1 is greater than 30 µM. Besides, the “log K” value in series [4] is reported as 0.76.

On to `O=C(Nc1ccc(F)cc1)c1ccc2cccc(O)c2n1`, for which the MIC90 in series [1], in series [2] and in series [3] was 53 µM (≈ 15 µg/mL) each time. The IC50 with THP-1 was greater than 30 µM. Besides, the “log K” value in series [4] came to 0.8598.

`COc1ccccc1NC(=O)c1ccc2cccc(O)c2n1`: the MIC90 in series [1] turned out to be 51 µM (≈ 15 µg/mL); in series [2], 51 µM (≈ 15 µg/mL); in series [3] it was 27 µM (≈ 7.95 µg/mL). In addition, the IC50 in the series with THP-1 is greater than 30 µM. In series [4], the “log K” value worked out at 0.7935.

Regarding `COc1cccc(NC(=O)c2ccc3cccc(O)c3n2)c1`, the MIC90 in series [1], in series [2] and in series [3] was 27 µM (≈ 7.95 µg/mL) in each case. In series [5], the Activity amounted to 30.9%. The IC50 in the series on THP-1 was greater than 30 µM. Also, the “log K” value in series [4] is on record as 0.8164.

`COc1ccc(NC(=O)c2ccc3cccc(O)c3n2)cc1`: the MIC90 in series [1] is 425 µM (≈ 125 µg/mL); in series [2], 849 µM (≈ 250 µg/mL); in series [3] it was 849 µM (≈ 250 µg/mL). The IC50 in the series on THP-1 is greater than 30 µM. Besides, the “log K” value in series [4] is recorded as 0.7129.

Take `Cc1ccccc1NC(=O)c1ccc2cccc(O)c2n1`: the figures for the MIC90 in series [1], in series [2] and in series [3] were 54 µM (≈ 15 µg/mL), 29 µM (≈ 8.07 µg/mL) and 29 µM (≈ 8.07 µg/mL), respectively. Also, the 50% inhibitory concentration (IC50) in the series on THP-1 was greater than 30 µM. Also, the “log K” value in series [4] turned out to be 0.6944.

`Cc1cccc(NC(=O)c2ccc3cccc(O)c3n2)c1`: the MIC90 in series [1], in series [2] and in series [3] was 29 µM (≈ 8.07 µg/mL) in each case. Also, in series [5], the Activity was found to be 66.4%. Besides, the half-maximal inhibitory concentration (IC50) with THP-1 was greater than 30 µM. The “log K” value in series [4] is given as 0.9686.

Turning to `Cc1ccc(NC(=O)c2ccc3cccc(O)c3n2)cc1`, the values for the MIC90 in series [1], in series [2] and in series [3] were 54 µM (≈ 15 µg/mL), 29 µM (≈ 8.07 µg/mL) and 29 µM (≈ 8.07 µg/mL), respectively. For the same compound, the IC50 in the series on THP-1 was greater than 30 µM. Moreover, the “log K” value in series [4] is given as 0.9521.

Consider `O=C(Nc1ccccc1F)c1ccc2cccc(O)c2n1`, for which the MIC90 in series [1] was 53 µM (≈ 15 µg/mL); in series [2] it was 28 µM (≈ 7.9 µg/mL); in series [3], 28 µM (≈ 7.9 µg/mL). This compound showed an Activity in series [5] of 26.9%. Besides, the half-maximal inhibitory concentration (IC50) with THP-1 was greater than 30 µM. Also, in series [4], the “log K” value was determined as 0.6806.

With `O=C(Nc1cccc(F)c1)c1ccc2cccc(O)c2n1`, the MIC90 in series [1], in series [2] and in series [3] was 53 µM (≈ 15 µg/mL) throughout. Also, the concentration for half-maximal inhibition (IC50) with THP-1 is greater than 30 µM. For the same compound, in series [4], the “log K” value is given as 0.942.

With `O=C(Nc1ccccc1Cl)c1ccc2cccc(O)c2n1`, the MIC90 in series [1] came out at 837 µM (≈ 250 µg/mL); in series [2] it was 27 µM (≈ 8.07 µg/mL); in series [3], 27 µM (≈ 8.07 µg/mL). In series [5], this compound gave an Activity of 21.4%. In addition, the IC50 in the series on THP-1 is greater than 30 µM. Moreover, the “log K” value in series [4] worked out at 0.9566.

As for `O=C(Nc1cccc(Cl)c1)c1ccc2cccc(O)c2n1`, the MIC90 in series [1], in series [2] and in series [3] was 50 µM (≈ 14.9 µg/mL) each time. In addition, in the series on THP-1, the IC50 is greater than 30 µM. For the same compound, the “log K” value in series [4] worked out at 1.1718.

Take `O=C(Nc1ccc(Cl)cc1)c1ccc2cccc(O)c2n1`: the MIC90 was found to be 50 µM (≈ 14.9 µg/mL) in series [1], 837 µM (≈ 250 µg/mL) in series [2] and 837 µM (≈ 250 µg/mL) in series [3]. Further, the IC50 in the series with THP-1 is greater than 30 µM. Besides, the “log K” value in series [4] is given as 1.1543.

Turning to `O=C(Nc1ccccc1Br)c1ccc2cccc(O)c2n1`, the MIC90 in series [1] amounted to 729 µM (≈ 250 µg/mL); in series [2], 23 µM (≈ 7.89 µg/mL); in series [3], 23 µM (≈ 7.89 µg/mL). The Activity in series [5] was 26.9%. For the same compound, the IC50 in the series on THP-1 is greater than 30 µM. In series [4], the “log K” value is given as 1.0536.

Regarding `O=C(Nc1cccc(Br)c1)c1ccc2cccc(O)c2n1`, the MIC90 in series [1], in series [2] and in series [3] was 44 µM (≈ 15.1 µg/mL) each time. Also, in the series on THP-1, the half-maximal inhibitory concentration (IC50) is greater than 30 µM. Also, the “log K” value in series [4] is 1.2357.

As to `O=C(Nc1ccc(Br)cc1)c1ccc2cccc(O)c2n1`, the MIC90 stood at 44 µM (≈ 15.1 µg/mL) in series [1], 729 µM (≈ 250 µg/mL) in series [2] and 729 µM (≈ 250 µg/mL) in series [3]. The IC50 with THP-1 is greater than 30 µM. Besides, the “log K” value in series [4] amounted to 1.2347.

For `O=C(Nc1ccccc1C(F)(F)F)c1ccc2cccc(O)c2n1`, the MIC90 in series [1] worked out at 752 µM (≈ 250 µg/mL); in series [2], 24 µM (≈ 7.97 µg/mL); in series [3], 24 µM (≈ 7.97 µg/mL). In addition, the Activity in series [5] came to 53.4%. Also, the concentration for half-maximal inhibition (IC50) in the series with THP-1 was greater than 30 µM. Further, the “log K” value in series [4] was determined as 0.9147.

Consider `O=C(Nc1cccc(C(F)(F)F)c1)c1ccc2cccc(O)c2n1`, for which the MIC90 in series [1], in series [2] and in series [3] was 24 µM (≈ 7.97 µg/mL) each time. The compound further displayed an Activity in series [5] of 18.8%. Moreover, the IC50 in the series on THP-1 was greater than 30 µM. Further, the “log K” value in series [4] came to 1.3206.

For the compound `O=C(Nc1ccc(C(F)(F)F)cc1)c1ccc2cccc(O)c2n1`, the MIC90 in series [1], in series [2] and in series [3] was 24 µM (≈ 7.97 µg/mL) each time. Besides, in series [5], the Activity was determined as 33.1%. Also, the IC50 in the series on THP-1 is greater than 30 µM. Also, in series [4], the “log K” value is on record as 1.3653.

With `O=C(Nc1ccccc1[N+](=O)[O-])c1ccc2cccc(O)c2n1`, the MIC90 in series [1] was 808 µM (≈ 250 µg/mL); in series [2] it was 97 µM (≈ 30 µg/mL); in series [3] it was 97 µM (≈ 30 µg/mL). For the same compound, the IC50 with THP-1 is greater than 30 µM. The “log K” value in series [4] is 1.1277.

Take `O=C(Nc1cccc([N+](=O)[O-])c1)c1ccc2cccc(O)c2n1`: the MIC90 came out at 808 µM (≈ 250 µg/mL) in series [1], 808 µM (≈ 250 µg/mL) in series [2] and 26 µM (≈ 8.04 µg/mL) in series [3]. The Activity in series [5] stood at 7%. The IC50 in the series with THP-1 is greater than 30 µM. Besides, the “log K” value in series [4] worked out at 0.9845.

Regarding `O=C(Nc1ccc([N+](=O)[O-])cc1)c1ccc2cccc(O)c2n1`, the MIC90 stood at 808 µM (≈ 250 µg/mL) in series [1], 404 µM (≈ 125 µg/mL) in series [2] and 26 µM (≈ 8.04 µg/mL) in series [3]. Besides, the Activity in series [5] is on record as 17.3%. Also, the half-maximal inhibitory concentration (IC50) in the series on THP-1 is greater than 30 µM. In series [4], the “log K” value is reported as 1.0495.

`CO[C@H]1/C=C/O[C@@]2(C)Oc3c(C)c(O)c4c(O)c(c(/C=N/N5CCN(C)CC5)c(O)c4c3C2=O)NC(=O)/C(C)=C\C=C\[C@H](C)[C@H](O)[C@@H](C)[C@@H](O)[C@@H](C)[C@H](OC(C)=O)[C@@H]1C` [RIFAMPIN]: the results for the MIC90 in series [1], in series [2] and in series [3] were 10 µM (≈ 8.23 µg/mL), 109 µM (≈ 89.7 µg/mL) and 10 µM (≈ 8.23 µg/mL), respectively.
